Assay results as given in the Kinase Knowledgebase extract (Sharma et al. 2016).
pIC50: −log10 of the molar value.

target: PIK3CB;PIK3CG;PIK3CD;PIK3CA (human) (UniProt P48736); assay: Enzyme Assay

Row | pIC50 | Compound
1 | 6.30 | Cc1noc(-c2ccc3nc(-n4cccn4)nc(N4CCOCC4)c3n2)n1
2 | 5.75 | CN(C)CCNC(=O)c1cc(NCCN(C)C)c2nc(-n3ccnc3)nc(N3CCOCC3)c2n1
3 | 6.19 | COCc1noc(-c2ccc3nc(-n4ccnc4)nc(N4CCOCC4)c3n2)n1
4 | 6.66 | CSc1cc(-c2nc(C)no2)nc2c(N3CCOCC3)nc(-n3cccn3)nc12
5 | 5.94 | COCc1cc(N(C)C)c2nc(-n3ccnc3)nc(N3CCOCC3)c2n1
6 | 5.89 | COCCNc1cc(C(=O)OC)nc2c(N3CCOCC3)nc(-n3ccnc3)nc12
7 | 5.16 | COC(=O)c1cc(SC)c2nc(C)nc(N3CCOCC3)c2n1
8 | 5.74 | Cc1ccc2nc(-c3ccccc3)nc(N3CCOCC3)c2n1
9 | 5.53 | CN(C)C(=O)c1ccc2nc(-n3ccnc3)nc(N3CCOCC3)c2n1
10 | 5.55 | COC(=O)c1cc(SC)c2nc(-c3ccccc3)nc(N3CCOCC3)c2n1
11 | 5.85 | COCCN(C)c1cc(C(=O)OC)nc2c(N3CCOCC3)nc(-n3ccnc3)nc12
12 | 5.74 | NC(=O)c1ccc2nc(-n3ccnc3)nc(N3CCOCC3)c2n1
13 | 6.38 | COC(=O)c1cc(N(C)C)c2nc(-n3ccnc3)nc(N3CCOCC3)c2n1
14 | 5.45 | COC(=O)c1cc(SC)c2nc(Cl)nc(N3CCOCC3)c2n1
15 | 6.49 | CSc1cc(-c2nnc(C)o2)nc2c(N3CCOCC3)nc(-n3ccnc3)nc12
16 | 5.92 | COC(=O)c1cc(SC)c2nc(-c3cnn(C)c3)nc(N3CCOCC3)c2n1
17 | 6.00 | COC(=O)c1cc(N2CCN(C)CC2)c2nc(-n3ccnc3)nc(N3CCOCC3)c2n1
18 | 5.78 | COC(=O)c1cc(Cl)c2nc(-n3cccn3)nc(N3CCOCC3)c2n1
19 | 5.09 | COC(=O)c1cc(-n2cccc2)c2nc(-n3cccc3)nc(N3CCOCC3)c2n1

Row | pIC50 | Compound
20 | 6.64 | Cc1nnc(-c2cc(N(C)C)c3nc(-n4ccnc4)nc(N4CCOCC4)c3n2)o1
21 | 5.40 | OCc1ccc2nc(-n3ccnc3)nc(N3CCOCC3)c2n1
22 | 6.17 | COC(=O)c1cc(N2CCOCC2)c2nc(-n3ccnc3)nc(N3CCOCC3)c2n1
23 | 5.28 | c1cnc2c(N3CCOCC3)nc(-n3ccnc3)nc2c1
24 | 5.72 | CN(C)CCNCc1ccc2nc(-n3ccnc3)nc(N3CCOCC3)c2n1
25 | 6.10 | Cc1noc(-c2ccc3nc(-n4ccnc4)nc(N4CCOCC4)c3n2)n1
26 | 6.08 | COCc1ccc2nc(-n3ccnc3)nc(N3CCOCC3)c2n1
27 | 6.08 | COCc1noc(-c2ccc3nc(-n4cccn4)nc(N4CCOCC4)c3n2)n1
28 | 5.41 | CSc1cc(CO)nc2c(N3CCOCC3)nc(-c3ccsc3)nc12
29 | 6.85 | CSc1cc(C(=O)N(C)C)nc2c(N3CCOCC3)nc(-c3cccc(CO)c3)nc12
30 | 6.24 | COC(=O)c1cc(S(C)(=O)=O)c2nc(-n3ccnc3)nc(N3CCOCC3)c2n1
31 | 6.09 | COC(=O)c1cc(Cl)c2nc(-n3ccnc3)nc(N3CCOCC3)c2n1
32 | 5.53 | OCc1cc(N2CCOCC2)c2nc(-n3ccnc3)nc(N3CCOCC3)c2n1
33 | 6.46 | COC(=O)c1cc(SC)c2nc(-n3ccnc3)nc(N3CCOCC3)c2n1
34 | 6.02 | Cc1ccc2nc(-n3ccnc3)nc(N3CCOCC3)c2n1
35 | 5.90 | COC(=O)c1cc(SC)c2nc(-c3cn[nH]c3)nc(N3CCOCC3)c2n1
36 | 5.49 | CN(C)Cc1ccc2nc(-n3ccnc3)nc(N3CCOCC3)c2n1
37 | 5.96 | CNC(=O)c1ccc2nc(-n3ccnc3)nc(N3CCOCC3)c2n1
38 | 4.94 | COC(=O)c1cc(SC)c2nc(-c3ccc(OC)cc3)nc(N3CCOCC3)c2n1

Row | pIC50 | Compound
39 | 5.07 | COCc1cc(CN2CCOCC2)c2nc(-n3ccnc3)nc(N3CCOCC3)c2n1
40 | 6.23 | Cc1noc(-c2cc(N(C)C)c3nc(-n4ccnc4)nc(N4CCOCC4)c3n2)n1
41 | 6.14 | COC(=O)c1ccc2nc(-n3ccnc3)nc(N3CCOCC3)c2n1
42 | 5.45 | CSc1cc(-c2nc(C)no2)nc2c(N3CCOCC3)nc(-n3ccnc3)nc12
43 | 5.74 | COC(=O)c1cc(SC)c2nc(-c3ccsc3)nc(N3CCOCC3)c2n1
44 | 6.38 | COCCN(C)c1cc(-c2nnc(C)o2)nc2c(N3CCOCC3)nc(-n3ccnc3)nc12
45 | 5.64 | COC(=O)c1cc(S(C)(=O)=O)c2nc(Cl)nc(N3CCOCC3)c2n1
46 | 5.42 | CSCc1ccc2nc(-n3ccnc3)nc(N3CCOCC3)c2n1
47 | 5.06 | Cc1ccc2nc(Cl)nc(N3CCOCC3)c2n1
48 | 6.37 | COC(=O)c1ccc2nc(-c3ccccc3)nc(N3CCOCC3)c2n1
49 | 5.24 | COC(=O)c1cc(SC)c2nc(-c3ccncc3)nc(N3CCOCC3)c2n1
50 | 6.07 | CSc1cc(C(=O)N(C)C)nc2c(N3CCOCC3)nc(-c3cccc4[nH]ncc34)nc12
51 | 5.64 | COCc1cc(SC)c2nc(-n3ccnc3)nc(N3CCOCC3)c2n1
52 | 5.60 | COCCN(C)c1cc(-c2nc(C)no2)nc2c(N3CCOCC3)nc(-n3cccn3)nc12
53 | 4.91 | COC(=O)c1cc(Cl)c2nc(Cl)nc(N3CCOCC3)c2n1
54 | 5.90 | COC(=O)c1cc(SC)c2nc(-c3cccc4[nH]ccc34)nc(N3CCOCC3)c2n1
55 | 6.32 | Cc1noc(-c2cc(N(C)C)c3nc(-n4cccn4)nc(N4CCOCC4)c3n2)n1
56 | 5.48 | Cc1noc(-c2cc(Cl)c3nc(-n4ccnc4)nc(N4CCOCC4)c3n2)n1
